Publication PMC7926352, “Synthesis, Characterization and In Vitro Evaluation of Novel 5-Ene-thiazolo[3,2-b][1,2,4]triazole-6(5H)-ones as Possible Anticancer Agents” (Molecules, 2021)
Like-named read-outs stand apart in the source and are kept apart here.

Key:
Colon cancer cell lines = details: for GI50 / CC50: Homo sapiens
CNS Cancer cell lines = details: for GI50 / CC50: Homo sapiens
Renal Cancer cell lines = details: for GI50 / CC50: Homo sapiens
NCI-H226 = format: cell-based; details: NCI-H226, NSCLC
[1] = system: NSCLC (Non-small Cell Lung Cancer) cell lines; details: for GI50 / CC50: Homo sapiens
SNB-19 = format: cell-based; details: SNB-19, CNS Cancer
[2] = read-out: GI50, values range inside panel
[3] = read-out: LC50, values range inside panel

O=C(COc1ccc(Cl)cc1/C=c1\sc2ncnn2c1=O)Nc1ccc(Cl)cc1 [Compound 2h, (Z)-2-(4-Chloro-2-((6-oxothiazolo[3,2-b][1,2,4]triazol-5(6H)-ylidene)methyl)phenoxy)-N-(4-chlorophenyl)acetamide]
GI50 (RPMI-8226; Homo sapiens, RPMI-8226): 1.69 µM | CC50 (RPMI-8226; Homo sapiens, RPMI-8226, read-out: LC50): 26.9 µM | TGI (RPMI-8226; RPMI-8226, Leukemia): 4.89 µM | TGI (HCT-116; HCT-116, Colon cancer): 20.89 µM | GI50 (HCT-116; Homo sapiens, HCT-116): 7.58 µM | CC50 (HCT-116; Homo sapiens, HCT-116, read-out: LC50): 45.7 µM | TGI, panel MG_MID (Colon cancer cell lines; Colon cancer subpanel): 17.39 µM | TGI, values range inside panel (Colon cancer cell lines; Colon cancer subpanel): 10.96 to 21.37 µM | GI50 (Colon cancer cell lines; read-out: GI50, panel MG_MID): 6.13 µM | GI50 (Colon cancer cell lines; [2]): 2.45 to 9.33 µM | CC50 (Colon cancer cell lines; read-out: LC50, panel MG_MID): 41.4 µM | CC50 (Colon cancer cell lines; [3]): 33.1 to 45.7 µM | TGI, panel MG_MID (CNS Cancer cell lines; CNS Cancer subpanel): 10.76 µM | TGI, values range inside panel (CNS Cancer cell lines; CNS Cancer subpanel): 4.46 to 15.48 µM | GI50 (CNS Cancer cell lines; read-out: GI50, panel MG_MID): 2.87 µM | GI50 (CNS Cancer cell lines; [2]): 1.77 to 4.07 µM | CC50 (CNS Cancer cell lines; read-out: LC50, panel MG_MID): 38.6 µM | CC50 (CNS Cancer cell lines; [3]): 12.6 to 87.1 µM | GI50 (Renal Cancer cell lines; read-out: GI50, panel MG_MID): 5.37 µM | GI50 (Renal Cancer cell lines; [2]): 1.62 to 12.6 µM | CC50 (Renal Cancer cell lines; read-out: LC50, panel MG_MID): 40.5 µM | CC50 (Renal Cancer cell lines; [3]): 28.8 to 50.1 µM | TGI, panel MG_MID (Renal Cancer cell lines; Renal Cancer subpanel): 16.40 µM | TGI, values range inside panel (Renal Cancer cell lines; Renal Cancer subpanel): 8.12 to 25.11 µM | TGI (HOP-92; HOP-92, NSCLC): 11.74 µM | GI50 (HOP-92; Homo sapiens, HOP-92): 2.29 µM | CC50 (HOP-92; Homo sapiens, HOP-92, read-out: LC50): 34.7 µM | GI50 (SK-MEL-5; Homo sapiens, SK-MEL-5): 3.23 µM | CC50 (SK-MEL-5; Homo sapiens, SK-MEL-5, read-out: LC50): 38 µM | TGI (SK-MEL-5; SK-MEL-5, Melanoma): 14.79 µM | GI50 (MALME-3M; Homo sapiens, Malme-3M): 7.94 µM | CC50 (MALME-3M; Homo sapiens, Malme-3M, read-out: LC50): 45.7 µM | TGI (MALME-3M; MALME-3M, Melanoma): 20.89 µM | GI50 (SF-295; Homo sapiens, SF-295): 1.86 µM | CC50 (SF-295; Homo sapiens, SF-295, read-out: LC50): 18.6 µM | TGI (SF-295; SF-295, CNS Cancer): 5.24 µM | GI50 (NCI-H226; Homo sapiens): 3.09 µM | LC50 (50% lethal concentration) (NCI-H226; Homo sapiens): 44.7 µM | TGI (NCI-H226): 17.37 µM | GI50 (SF-268; Homo sapiens, SF-268): 2.39 µM | CC50 (SF-268; Homo sapiens, SF-268, read-out: LC50): 37.1 µM | TGI (SF-268; SF-268, CNS Cancer): 10.47 µM | GI50 (M14; Homo sapiens, M14): 8.31 µM | CC50 (M14; Homo sapiens, M14, read-out: LC50): 45.7 µM | TGI (M14; M14, Melanoma): 20.89 µM | GI50 (OVCAR-3; Homo sapiens, OVCAR-3): 2.18 µM | CC50 (OVCAR-3; Homo sapiens, OVCAR-3, read-out: LC50): 19.5 µM | TGI (OVCAR-3; OVCAR-3, Ovarian Cancer): 5.62 µM | GI50 (NCI-H522; Homo sapiens, NCI-H522): 3.16 µM | CC50 (NCI-H522; Homo sapiens, NCI-H522, read-out: LC50): 38 µM | TGI (NCI-H522; NCI-H522, NSCLC): 9.99 µM | TGI (HOP-62; HOP-62, NSCLC): 16.59 µM | GI50 (HOP-62; Homo sapiens, HOP-62): 4.67 µM | CC50 (HOP-62; Homo sapiens, HOP-62, read-out: LC50): 42.6 µM | TGI (DU-145; DU-145, Prostate Cancer): 4.46 µM | GI50 (DU-145; Homo sapiens, DU-145): 1.54 µM | CC50 (DU-145; Homo sapiens, DU-145, read-out: LC50): 15.8 µM | GI50 (K-562; Homo sapiens, K562): 2.51 µM | CC50 (K-562; Homo sapiens, K562, read-out: LC50): 49 µM | TGI (K-562; K-562, Leukemia): 14.45 µM | GI50 (UACC-62; Homo sapiens, UACC-62): 2.69 µM | CC50 (UACC-62; Homo sapiens, UACC-62, read-out: LC50): 38 µM | TGI (UACC-62; UACC-62, Melanoma): 14.79 µM | GI50 (KM12; Homo sapiens, KM12): 2.45 µM | CC50 (KM12; Homo sapiens, KM12, read-out: LC50): 33.1 µM | TGI (KM12; KM12, Colon cancer): 10.96 µM | TGI (A498; A498, Renal Cancer): 22.38 µM | GI50 (A498; Homo sapiens, A498): 10.5 µM | CC50 (A498; Homo sapiens, A498, read-out: LC50): 46.8 µM | GI50 (RXF 393; Homo sapiens, RXF 393): 1.9 µM | CC50 (RXF 393; Homo sapiens, RXF 393, read-out: LC50): 36.3 µM | TGI (RXF 393; RXF 393, Renal Cancer): 8.51 µM | GI50 (SR; Homo sapiens): 1.38 µM | CC50 (SR; Homo sapiens, read-out: LC50): 17.4 µM | TGI (SR; Leukemia): 4.07 µM | GI50 (MCF7; Homo sapiens, MCF7): 0.79 µM | CC50 (MCF7; Homo sapiens, MCF7, read-out: LC50): 19.5 µM | TGI (MCF7; MCF7, Breast Cancer): 4.07 µM | GI50 (OVCAR-4; Homo sapiens, OVCAR-4): 8.91 µM | CC50 (OVCAR-4; Homo sapiens, OVCAR-4, read-out: LC50): 97.7 µM | TGI (OVCAR-4; OVCAR-4, Ovarian Cancer): 30.90 µM | GI50 (SNB-75; Homo sapiens, SNB-75): 3.38 µM | CC50 (SNB-75; Homo sapiens, SNB-75, read-out: LC50): 87.1 µM | TGI (SNB-75; SNB-75, CNS Cancer): 15.48 µM | GI50 (UO-31; Homo sapiens, UO-31): 2.29 µM | CC50 (UO-31; Homo sapiens, UO-31, read-out: LC50): 44.7 µM | TGI (UO-31; UO-31, Renal Cancer): 17.37 µM | GI50 (EKVX; Homo sapiens): 2.51 µM | CC50 (EKVX; Homo sapiens, read-out: LC50): 31.6 µM | TGI (EKVX; NSCLC): 9.99 µM | GI50 ([1]; read-out: GI50, panel MG_MID): 6.98 µM | GI50 [1, 2]: 2.29 to 15.5 µM | CC50 ([1]; read-out: LC50, panel MG_MID): 44 µM | CC50 [1, 3]: 31.6 to 60.2 µM | TGI, panel MG_MID ([1]; NSCLC subpanel): 18.22 µM | TGI, values range inside panel ([1]; NSCLC subpanel): 9.99 to 30.90 µM | GI50 (LOX IMVI; Homo sapiens): 2.63 µM | CC50 (LOX IMVI; Homo sapiens, read-out: LC50): 33.1 µM | TGI (LOX IMVI; Melanoma): 11.22 µM | GI50 (SNB-19; Homo sapiens): 3.8 µM | CC50 (SNB-19; Homo sapiens, read-out: LC50 (the source's name)): 38 µM | TGI (SNB-19): 14.45 µM
